Data published in patent US9879003B2, “Host targeted inhibitors of dengue virus and other viruses” (priority 2012, dated 2018).
“Also recorded” adds a separate entry of the source. Like-named read-outs stand apart in the source and are kept apart here.

What was measured:
DENV2 virus [1] = experiment: QL-XII-47 biotin test, DENV2 in Huh7 cells, titration in FFU/ml; type: cell-based, Dengue virus; conditions: treated for 24 or 48 h
DENV2 replicon = type: cell-based, Dengue virus; conditions: 2 μM added at 24 hours, read at 72 hours post-electroporation
DENV4 TVP360 = experiment: Yield reduction assay, DENV4-TVP360 in Huh7 cells, FFA in Vero cells; conditions: Huh7 MOI 1, FFA in Vero cells
[2] = tested on: vesicular stomatitis virus (VSV); type: cell-based
DENV2-NGC genomic RNA = experiment: Time course of intracellular DENV genomic RNA by qRT-PCR and in situ hybridization; conditions: 2 μM, MOI 1, normalized to GAPDH
Lassa fever virus (LASV) = type: cell-based
[3] = tested on: herpes simplex virus 1 (HSV-1); type: cell-based
[4] = tested on: DENV2 virus-like particles (VLPs); experiment: DENV virus-like particle (VLP) expression and secretion, Huh7 cells, Western blot; type: cell-based, Dengue virus; conditions: 3 μM, supernatants 24 hours post-treatment
Description: The plasmid used for virus-like particles (VLP) production was provided by Stephen Harrison. Briefly, the codon optimized sequence of DENV2-FGA/02 prM-E (Wang et al., PLoS ONE (2009) 4:e8325) was introduced in the pCDNA3.1 vector. To produce VLPs, Huh7 cells were transfected with pCDNA3.1-D2.VLP using Lipofectamine 2000 (Life Technologies 11668-019) according to the manufacturer's instructions. […] The supernatants were collected at 24 hours post-treatment and precipitated for 3 hours at 4° C. by the addition of 0.075% of PEG 8000. The VLPs were pelleted by centrifugation at 10,000 g for 15 min at 4° C. The pellet was suspended in 200 μl of 1×TNE (10 mM Tris-HCl pH 7.5, 2.5 mM EDTA, 50 mM NaCl), loaded over a sucrose cushion (800 μl of 12.5% sucrose in 1×TNE), and centrifuged at 100,000 g for 2 h at 4° C. The supernatants were discarded, and the purified VLPs were suspended in 50 μl of 1×TNE. 25 μl of purified VLPs were analyzed for DENV2 E protein expression by Western blotting using 4G2 antibody. An equal amount of purified VLPs was loaded on a SDS-PAGE and submitted to Coomassie staining to control for equal loading of the VLPs-enriched supernatants. Steady state expression of DENV2 E protein in the cell lysates was analyzed by Western blotting using 4G2 antibody.

[5] = tested on: Rift Valley fever virus (RVFV); type: cell-based
vaccinia virus = type: cell-based
[6] = tested on: Ebola glycoprotein (EBOV); type: cell-based, Ebola virus
[7] = tested on: DENV2 New Guinea C (DENV2-NGC); experiment: Viral yield reduction assay, DENV2-NGC in Huh7 cells, titration by focus forming assay (FFA); type: cell-based, Dengue virus
[8] = tested on: VSV pseudotyped with Ebola glycoprotein (EboV); type: cell-based, vesicular stomatitis virus
Marburg virus (MARV) = type: cell-based
[9] = tested on: encephalomyocarditis virus (EMCV) IRES; type: cell-based
VSV = type: cell-based, vesicular stomatitis virus
[10] = tested on: human cytomegalovirus (HCMV); type: cell-based
DENV3 THD3 = experiment: Yield reduction assay, DENV3-THD3 in Huh7 cells, FFA in Vero cells; conditions: Huh7 MOI 1, FFA in Vero cells
[11] = tested on: DENV2-Fluc(WT) replicon RNA; experiment: DENV2-Fluc(WT) replicon translation, luciferase, Huh7 cells; type: cell-based, Dengue virus; conditions: 6 hours post-electroporation; QL compounds 2 μM, cycloheximide 30 μg/mL
Kunjin virus = Kunjin virus yield reduction in Huh7 cells, plaque assay in BHK21 cells; type: cell-based; conditions: 2 μM
[12] = tested on: recombinant viral particles (RVP) with dengue structural proteins and West Nile virus reporter RNA; experiment: Single-cycle reporter viral particle (RVP) assay, Renilla luciferase, Huh7 cells; type: cell-based; conditions: entry and translation of subgenomic replicon RNA
DENV2 virus [13] = experiment: DENV2 viral production time course in Huh7 cells (FFU/ml, RTqPCR, Western blot); type: cell-based, Dengue virus; conditions: 4 μM
[14] = tested on: DENV2-Fluc (GDV) replicon RNA; experiment: DENV2-Fluc(GDV) mutant replicon translation, luciferase, Huh7 cells; type: cell-based, Dengue virus; conditions: 6 hours post-electroporation; QL compounds 2 μM, cycloheximide 30 μg/mL
poliovirus Type 1 (PV1) = type: cell-based
influenza virus = type: cell-based
[15] = tested on: Venezuelan equine encephalitis virus (VEEV); type: cell-based
DENV1 WP74 = experiment: Yield reduction assay, DENV1-WP74 in Huh7 cells, FFA in Vero cells; conditions: Huh7 MOI 1, FFA in Vero cells
Junin virus (JUNV) = type: cell-based
Huh7 cells = experiment: CellTiter-Glo luminescent cell viability assay (cytotoxicity); type: cell-based; conditions: 20 μM, the highest concentration tested
Description: As a positive control for cytotoxicity, some wells were supplemented with 0.1% saponin. The plates were incubated for 24 hours at 37° C., and the cell cytotoxicity was measured following the instructions of the CellTiter-Glo Luminescent cell viability assay (Promega G7570).

Junin virus = type: cell-based
[16] = tested on: VSV pseudotyped with rabies virus glycoprotein (RABV); type: cell-based, vesicular stomatitis virus
[17] = tested on: Japanese Encephalitis virus (JEV); type: cell-based
poliovirus = type: cell-based
[18] = target: DENV RNA-dependent polymerase (Dengue virus type 2, UniProt P14340); conditions: Wu et al. 2002; cited from earlier work

SMILES: CN(C/C=C/C(=O)N1CCc2ccc(-n3c(=O)ccc4cnc5ccc(-c6cnn(C)c6)cc5c43)cc21)CCNC(=O)NCCOCCOCCOCCNC(=O)CCCC1SCC2NC(=O)NC21 (stereo not drawn) [QL-XII-47-biotin]
- inhibitory activity against dengue virus (DENV2 virus [1]): significantly reduced inhibitory activity

SMILES: C=CC(=O)N1CCc2ccc(-n3c(=O)ccc4cnc5ccc(-c6cnn(C)c6)cc5c43)cc21 [QL-XII-47]
- activity on electroporated subgenomic reporter replicon (DENV2 replicon): does not have activity
- activity against strain (DENV4 TVP360): potent activity
- inhibition of VSV [2]: inhibited
- cytotoxicity (BHK21): not observed
- DENV genomic RNA copy number over time (DENV2-NGC genomic RNA): relatively unchanged copy number
- inhibitory activity (Lassa fever virus (LASV)): inhibitory activity
- inhibition of infection and plaque formation [3]: inhibits
- plaques detected [3]: no plaques were detected
- yield of virus-like particles (VLPs) [4]: did not inhibit
- inhibitory activity [5]: inhibitory activity
- activity against virus (vaccinia virus): no activity
- inhibitory activity [6]: inhibitory activity
- activity against strain ([7]; DENV2 NGC, Huh7 MOI 1, FFA in Vero cells): potent activity
- EC90 ([7]; Dengue virus, DENV2, Huh-7): 0.4 µM
- decrease in DENV2 New Guinea C (DENV2-NGC) yield / drop in viral titer ([7]; at single-digit micromolar concentrations): > 3 log10 unit
- inhibition of DENV after pretreatment of cells ([7]; cells pretreated for 6 hours and washed prior to infection): potent inhibition
- time of addition giving maximal anti-DENV effect ([7]; time-of-addition experiment): 0-3 hours post-infection
- inhibition of infection [8]: inhibits infection
- inhibitory activity (Marburg virus (MARV)): inhibitory activity
- EMCV IRES-dependent translation [9]: reduces translation; also recorded: inhibited
- inhibition of infection (VSV): inhibits infection
- inhibition of reporter HCMV infection [10]: inhibits
- cytotoxicity 293: single-digit micromolar cytotoxicity
- activity against strain (DENV3 THD3): potent activity
- luciferase activity (translation of input RNA) [11]: Reduced luciferase activity
- reduction in Kunjin virus yield (Kunjin virus): greater than 10 fold
- inhibition in single-cycle reporter virus assay [12]: potent inhibitory activity
- expression of DENV proteins NS3 and core (Western blot) (DENV2 virus [13]): reduced steady-state expression
- DENV2 viral production (FFU/ml, viral count) (DENV2 virus [13]; after about 12 hours of infection): inhibited
- luciferase activity (translation of input RNA) [14]: Reduced luciferase activity
- cytotoxicity (3T3): not observed
- inhibition of PV1 (poliovirus Type 1 (PV1)): inhibited
- activity against virus (influenza virus): no activity
- inhibitory activity [15]: inhibitory activity
- activity against strain (DENV1 WP74): potent activity
- cytotoxicity (Hela): single-digit micromolar cytotoxicity
- cytotoxicity (Vero): not observed
- inhibitory activity (Junin virus (JUNV)): inhibitory activity
- cytotoxicity (Huh7 cells): no cytotoxicity; also recorded: not observed
- inhibition of cytopathic effects (Junin virus): modest inhibitor
- inhibition of infection [16]: inhibits infection
- inhibition of cytopathic effects [17]: modest inhibitor
- inhibition of infection and viral gene expression (poliovirus): inhibits

SMILES: Nc1nc2c(ncn2COCCO)c(=O)[nH]1 [acyclovir, reference compound]
- plaques detected ([3]; 8 μM): no plaques were detected

SMILES: C=CC(=O)Nc1cc(-n2c(=O)ccc3cnc4ccc(-c5cnn(C)c5)cc4c32)ccc1C [QL-XII-56]
- inhibition of VSV [2]: inhibited
- inhibitory activity (Lassa fever virus (LASV)): inhibitory activity
- inhibitory activity [5]: inhibitory activity
- inhibitory activity [6]: inhibitory activity
- inhibitory activity (Marburg virus (MARV)): inhibitory activity
- EMCV IRES-dependent translation [9]: inhibited
- luciferase activity (translation of input RNA) [11]: Reduced luciferase activity
- luciferase activity (translation of input RNA) [14]: Reduced luciferase activity
- inhibition of PV1 (poliovirus Type 1 (PV1)): inhibited
- inhibitory activity [15]: inhibitory activity
- inhibitory activity (Junin virus (JUNV)): inhibitory activity

SMILES: C=CC(=O)N1CCC[C@@H](n2nc(-c3ccc(Oc4ccccc4)cc3)c3c(N)ncnc32)C1 [PCI-32765, reference compound]
- effect on DENV yield ([7]; added 1 hour post-infection, MOI 1, FFA at 24 h post-infection): not inhibited; also recorded: no effect

SMILES: C[C@@H]1C[C@@H]([C@H](O)CC2CC(=O)NC(=O)C2)C(=O)[C@@H](C)C1 [CHX, cycloheximide, reference compound]
- luciferase activity (translation of input RNA) [11]: Reduced luciferase activity
- luciferase activity (translation of input RNA) [14]: Reduced luciferase activity

SMILES: C[C@@]1(O)[C@H](O)[C@@H](CO)O[C@H]1n1ccc2c(N)ncnc21 [Compound 7-DMA]
- EC50 [18]: 15 µM
